Test results from ChEMBL document CHEMBL3991601, “The target landscape of clinical kinase drugs” (Science, 2017).
Calls of active or inactive are those of the source. Cut-off read from the data, not from the text of the source, for most assays here: actives have a measured Kd and inactives only a lower limit.

Columns and labels:
[1] = biological target: Mitogen-activated protein kinase 3 (Homo sapiens, UniProt P27361)
[2] = biological target: T1, Ras-related protein Rab-10 (Homo sapiens, UniProt P61026)
T1 sequence (P61026 whole entry): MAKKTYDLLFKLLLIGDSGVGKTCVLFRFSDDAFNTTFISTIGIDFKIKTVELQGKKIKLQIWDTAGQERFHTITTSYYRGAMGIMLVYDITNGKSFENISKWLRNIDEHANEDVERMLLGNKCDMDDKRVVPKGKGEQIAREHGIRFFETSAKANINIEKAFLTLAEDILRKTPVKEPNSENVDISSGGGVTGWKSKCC

dCTP pyrophosphatase 1 = biological target: T2, dCTP pyrophosphatase 1 (Homo sapiens, UniProt Q9H773)
T2 sequence (Q9H773 whole entry): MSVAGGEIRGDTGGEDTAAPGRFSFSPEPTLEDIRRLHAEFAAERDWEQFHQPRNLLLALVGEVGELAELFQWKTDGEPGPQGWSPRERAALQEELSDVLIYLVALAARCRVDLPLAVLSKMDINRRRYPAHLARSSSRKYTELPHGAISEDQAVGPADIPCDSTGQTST

[3] = biological target: cAMP-dependent protein kinase catalytic subunit beta (Homo sapiens, UniProt P22694)
[4] = biological target: 5'-AMP-activated protein kinase catalytic subunit alpha-1 (Homo sapiens, UniProt Q13131)
Sequence of 5'-AMP-activated protein kinase catalytic subunit alpha-1 (Q13131 whole entry): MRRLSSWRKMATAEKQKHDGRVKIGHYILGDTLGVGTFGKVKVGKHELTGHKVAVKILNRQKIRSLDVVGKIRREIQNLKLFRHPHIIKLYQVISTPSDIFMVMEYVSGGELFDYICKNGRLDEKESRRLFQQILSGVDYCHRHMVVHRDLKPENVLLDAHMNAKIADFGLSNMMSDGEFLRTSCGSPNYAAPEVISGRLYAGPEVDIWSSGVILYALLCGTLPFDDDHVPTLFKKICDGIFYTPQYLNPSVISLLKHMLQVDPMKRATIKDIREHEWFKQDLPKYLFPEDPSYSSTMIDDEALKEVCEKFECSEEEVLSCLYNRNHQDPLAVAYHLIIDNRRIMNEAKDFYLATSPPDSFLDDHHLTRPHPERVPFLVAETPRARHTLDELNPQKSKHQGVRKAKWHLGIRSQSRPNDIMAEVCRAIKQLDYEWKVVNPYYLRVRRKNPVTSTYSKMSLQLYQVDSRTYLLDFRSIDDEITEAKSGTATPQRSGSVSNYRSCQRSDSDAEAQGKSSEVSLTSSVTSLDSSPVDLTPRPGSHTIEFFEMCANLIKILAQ

[5] = biological target: T3, Serine/threonine-protein kinase ULK1 (Homo sapiens, UniProt O75385)
T3 sequence (O75385 whole entry): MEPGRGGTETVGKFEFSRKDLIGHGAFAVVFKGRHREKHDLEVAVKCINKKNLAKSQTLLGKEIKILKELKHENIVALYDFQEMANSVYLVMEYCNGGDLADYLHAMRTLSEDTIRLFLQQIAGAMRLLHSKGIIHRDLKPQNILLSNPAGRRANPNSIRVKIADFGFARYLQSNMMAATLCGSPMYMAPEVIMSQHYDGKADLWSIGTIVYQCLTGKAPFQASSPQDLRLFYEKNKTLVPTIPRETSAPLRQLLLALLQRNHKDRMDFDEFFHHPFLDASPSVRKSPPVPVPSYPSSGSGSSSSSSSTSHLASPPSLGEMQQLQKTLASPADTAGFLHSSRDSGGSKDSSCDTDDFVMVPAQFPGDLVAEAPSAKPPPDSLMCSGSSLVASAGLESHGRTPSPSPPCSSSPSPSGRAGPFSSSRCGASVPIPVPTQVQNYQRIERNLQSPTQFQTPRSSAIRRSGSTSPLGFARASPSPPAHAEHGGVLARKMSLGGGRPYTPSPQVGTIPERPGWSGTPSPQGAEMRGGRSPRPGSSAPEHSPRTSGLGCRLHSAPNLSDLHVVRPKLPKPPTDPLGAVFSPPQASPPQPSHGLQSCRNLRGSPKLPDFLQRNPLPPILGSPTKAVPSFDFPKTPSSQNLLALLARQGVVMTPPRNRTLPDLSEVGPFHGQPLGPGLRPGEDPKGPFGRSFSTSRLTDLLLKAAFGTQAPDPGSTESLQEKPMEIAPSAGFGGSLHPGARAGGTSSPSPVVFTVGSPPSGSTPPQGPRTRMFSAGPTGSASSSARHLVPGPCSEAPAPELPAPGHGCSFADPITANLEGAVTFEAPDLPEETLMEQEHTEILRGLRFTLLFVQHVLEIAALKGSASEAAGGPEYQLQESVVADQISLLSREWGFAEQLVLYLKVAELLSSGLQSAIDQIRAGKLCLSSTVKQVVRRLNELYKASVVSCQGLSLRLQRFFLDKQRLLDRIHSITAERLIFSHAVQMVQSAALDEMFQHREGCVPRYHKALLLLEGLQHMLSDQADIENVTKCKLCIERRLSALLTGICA

[6] = biological target: T4, Serine/threonine-protein kinase ULK3 (Homo sapiens, UniProt Q6PHR2)
T4 sequence (Q6PHR2 whole entry): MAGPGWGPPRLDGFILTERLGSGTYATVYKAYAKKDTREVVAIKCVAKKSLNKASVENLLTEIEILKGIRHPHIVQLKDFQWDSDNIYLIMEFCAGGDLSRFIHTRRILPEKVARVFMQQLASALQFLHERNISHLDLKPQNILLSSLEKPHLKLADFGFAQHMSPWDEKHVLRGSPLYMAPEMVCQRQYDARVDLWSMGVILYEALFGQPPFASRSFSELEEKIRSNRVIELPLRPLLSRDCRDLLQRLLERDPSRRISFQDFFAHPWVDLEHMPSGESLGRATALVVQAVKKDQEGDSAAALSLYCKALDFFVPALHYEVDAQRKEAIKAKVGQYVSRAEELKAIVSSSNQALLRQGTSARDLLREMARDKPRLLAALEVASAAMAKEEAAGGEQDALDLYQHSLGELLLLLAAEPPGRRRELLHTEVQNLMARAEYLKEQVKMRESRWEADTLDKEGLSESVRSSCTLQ

[7] = biological target: T5, Mitogen-activated protein kinase kinase kinase kinase 3 (Homo sapiens, UniProt Q8IVH8)
T5 sequence (Q8IVH8 whole entry): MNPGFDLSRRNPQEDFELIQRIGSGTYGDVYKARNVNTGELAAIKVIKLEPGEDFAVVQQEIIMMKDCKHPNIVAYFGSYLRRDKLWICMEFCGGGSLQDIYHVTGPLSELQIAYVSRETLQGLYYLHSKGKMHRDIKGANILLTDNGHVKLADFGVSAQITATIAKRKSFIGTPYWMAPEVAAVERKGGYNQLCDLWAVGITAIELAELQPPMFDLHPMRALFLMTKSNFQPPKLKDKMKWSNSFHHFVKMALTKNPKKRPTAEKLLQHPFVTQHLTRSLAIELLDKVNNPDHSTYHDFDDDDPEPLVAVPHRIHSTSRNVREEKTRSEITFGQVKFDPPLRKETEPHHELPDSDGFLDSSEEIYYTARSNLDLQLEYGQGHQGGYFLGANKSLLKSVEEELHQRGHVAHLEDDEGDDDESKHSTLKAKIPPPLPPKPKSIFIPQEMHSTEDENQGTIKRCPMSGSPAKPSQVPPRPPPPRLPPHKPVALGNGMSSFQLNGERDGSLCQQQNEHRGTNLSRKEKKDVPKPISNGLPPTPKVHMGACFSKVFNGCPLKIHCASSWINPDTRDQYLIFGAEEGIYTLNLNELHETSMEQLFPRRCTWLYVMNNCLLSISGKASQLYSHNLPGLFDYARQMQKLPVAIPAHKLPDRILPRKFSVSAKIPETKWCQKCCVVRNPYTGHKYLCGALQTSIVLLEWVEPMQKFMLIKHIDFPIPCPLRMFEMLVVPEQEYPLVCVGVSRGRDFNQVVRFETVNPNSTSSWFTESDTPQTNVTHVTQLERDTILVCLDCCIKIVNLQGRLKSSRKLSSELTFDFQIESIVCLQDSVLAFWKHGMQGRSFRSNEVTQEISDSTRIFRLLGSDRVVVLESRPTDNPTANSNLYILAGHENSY
Note: in the data inactive means no Kd found up to 30 µM.

Sequence of Mitogen-activated protein kinase 3 (P27361 whole entry): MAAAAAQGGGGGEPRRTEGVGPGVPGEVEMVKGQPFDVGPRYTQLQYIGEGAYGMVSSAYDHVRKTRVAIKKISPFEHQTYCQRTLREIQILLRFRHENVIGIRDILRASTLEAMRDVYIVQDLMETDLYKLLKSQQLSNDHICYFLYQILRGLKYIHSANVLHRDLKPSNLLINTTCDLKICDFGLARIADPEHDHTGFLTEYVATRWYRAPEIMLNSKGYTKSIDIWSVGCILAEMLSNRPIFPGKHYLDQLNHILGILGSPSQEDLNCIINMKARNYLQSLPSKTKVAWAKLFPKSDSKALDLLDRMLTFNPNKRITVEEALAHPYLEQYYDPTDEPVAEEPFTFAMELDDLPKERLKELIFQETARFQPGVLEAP

SMILES | Kd [1] | Kd [2] | Kd (dCTP pyrophosphatase 1) | Kd [3] | Kd [4] | Kd [5] | Kd [6] | Kd [7]
CNC(=O)c1cc(Oc2ccc(NC(=O)Nc3cc(C(C)(C)C)nn3-c3ccc4ncccc4c3)c(F)c2)ccn1 [REBASTINIB] | > 30 µM (inactive) | > 30 µM (inactive) | > 30 µM (inactive) | > 30 µM (inactive) | > 30 µM (inactive) | > 30 µM (inactive) | > 30 µM (inactive) | > 30 µM (inactive)
CO[C@H]1C[C@@H]2CC[C@@H](C)[C@@](O)(O2)C(=O)C(=O)N2CCCC[C@H]2C(=O)O[C@H]([C@H](C)C[C@@H]2CC[C@@H](OP(C)(C)=O)[C@H](OC)C2)CC(=O)[C@H](C)/C=C(\C)[C@@H](O)[C@@H](OC)C(=O)[C@H](C)C[C@H](C)/C=C/C=C/C=C/1C [RIDAFOROLIMUS] | > 30 µM (inactive) | > 30 µM (inactive) | > 30 µM (inactive) | > 30 µM (inactive) | > 30 µM (inactive) | > 30 µM (inactive) | > 30 µM (inactive) | > 30 µM (inactive)
N#CC1(c2ccc(NC(=O)c3cccnc3NCc3ccncc3)cc2)CCCC1 [RIVOCERANIB] | > 30 µM (inactive) | > 30 µM (inactive) | > 30 µM (inactive) | > 30 µM (inactive) | > 30 µM (inactive) | > 30 µM (inactive) | > 30 µM (inactive) | > 30 µM (inactive)
CN1CCN(CCOc2cc(OC3CCOCC3)c3c(Nc4c(Cl)ccc5c4OCO5)ncnc3c2)CC1 [SARACATINIB] | > 30 µM (inactive) | > 30 µM (inactive) | > 30 µM (inactive) | > 30 µM (inactive) | > 30 µM (inactive) | > 30 µM (inactive) | > 30 µM (inactive) | > 30 µM (inactive)
CO[C@H]1C[C@@H]2CC[C@@H](C)[C@@](O)(O2)C(=O)C(=O)N2CCCC[C@H]2C(=O)O[C@H]([C@H](C)C[C@@H]2CC[C@@H](O)[C@H](OC)C2)CC(=O)[C@H](C)/C=C(\C)[C@@H](O)[C@@H](OC)C(=O)[C@H](C)C[C@H](C)/C=C/C=C/C=C/1C [SIROLIMUS] | > 30 µM (inactive) | > 30 µM (inactive) | > 30 µM (inactive) | > 30 µM (inactive) | > 30 µM (inactive) | > 30 µM (inactive) | > 30 µM (inactive) | > 30 µM (inactive)
CO[C@H]1C[C@@H]2CC[C@@H](C)[C@@](O)(O2)C(=O)C(=O)N2CCCC[C@H]2C(=O)O[C@H]([C@H](C)C[C@@H]2CC[C@@H](OC(=O)C(C)(CO)CO)[C@H](OC)C2)CC(=O)[C@H](C)/C=C(\C)[C@@H](O)[C@@H](OC)C(=O)[C@H](C)C[C@H](C)/C=C/C=C/C=C/1C [TEMSIROLIMUS] | > 30 µM (inactive) | > 30 µM (inactive) | > 30 µM (inactive) | > 30 µM (inactive) | > 30 µM (inactive) | > 30 µM (inactive) | > 30 µM (inactive) | > 30 µM (inactive)
C[C@@H](NC(=O)c1ncnc(N)c1Cl)c1ncc(C(=O)Nc2cc(C(F)(F)F)c(Cl)cn2)s1 [TOVORAFENIB] | > 30 µM (inactive) | > 30 µM (inactive) | > 30 µM (inactive) | > 30 µM (inactive) | > 30 µM (inactive) | > 30 µM (inactive) | > 30 µM (inactive) | > 30 µM (inactive)
Cc1cc(Nc2ncnc3ccc(NC4=NC(C)(C)CO4)cc23)ccc1Oc1ccn2ncnc2c1 [TUCATINIB] | > 30 µM (inactive) | > 30 µM (inactive) | > 30 µM (inactive) | > 30 µM (inactive) | > 30 µM (inactive) | > 30 µM (inactive) | > 30 µM (inactive) | > 30 µM (inactive)
Cn1ncc(Cl)c1-c1cc(C(=O)N[C@H](CN)Cc2ccc(F)c(F)c2)oc1Cl [UPROSERTIB] | > 30 µM (inactive) | > 30 µM (inactive) | > 30 µM (inactive) | 0.049 µM (active) | > 30 µM (inactive) | > 30 µM (inactive) | > 30 µM (inactive) | > 30 µM (inactive)

Results, then the compound that gave them:

Kd [1] | Kd [2] | Kd (dCTP pyrophosphatase 1) | Kd [3] | Kd [4] | Kd [5] | Kd [6] | Kd [7] | SMILES
> 30 µM (inactive) | > 30 µM (inactive) | > 30 µM (inactive) | > 30 µM (inactive) | > 30 µM (inactive) | > 30 µM (inactive) | > 30 µM (inactive) | > 30 µM (inactive) | O=c1[nH]ccc2cc(OC3CCNCC3)ccc12 [SAR-407899 FREE BASE]
> 30 µM (inactive) | > 30 µM (inactive) | > 30 µM (inactive) | > 30 µM (inactive) | > 30 µM (inactive) | > 30 µM (inactive) | > 30 µM (inactive) | > 30 µM (inactive) | Cn1cc(-c2cnn3c(N)c(Br)c([C@@H]4CCCNC4)nc23)cn1 [SCH-900776]
> 30 µM (inactive) | > 30 µM (inactive) | > 30 µM (inactive) | > 30 µM (inactive) | > 30 µM (inactive) | > 30 µM (inactive) | > 30 µM (inactive) | 1.82 µM (active) | COc1cc2c(Nc3ccc(Cl)c(Cl)c3F)ncnc2cc1OC[C@@H]1C[C@@H]2CN(C)C[C@@H]2C1 [TESEVATINIB]
> 30 µM (inactive) | > 30 µM (inactive) | > 30 µM (inactive) | > 30 µM (inactive) | > 30 µM (inactive) | > 30 µM (inactive) | > 30 µM (inactive) | > 30 µM (inactive) | O=C(Cc1ccc(-c2ccc(OCCN3CCOCC3)cc2)cn1)NCc1ccccc1 [TIRBANIBULIN]
> 30 µM (inactive) | > 30 µM (inactive) | > 30 µM (inactive) | > 30 µM (inactive) | > 30 µM (inactive) | > 30 µM (inactive) | > 30 µM (inactive) | > 30 µM (inactive) | O=C1NC(=O)[C@@H](c2cn3c4c(cccc24)CCC3)[C@@H]1c1c[nH]c2ccccc12 [TIVANTINIB]
